Measured values from publication PMC8129716 (CPT: Pharmacometrics & Systems Pharmacology, 2021).
Converted amounts (≈) assume the structure as drawn.

Tests used:
CYP3A = settings: cited from earlier work
pKa = assay type: physicochemical
CYP2C9 [1] = settings: zanubrutinib 320 mg total daily dose, cocktail; cited from earlier work
CYP2C8 = CYP2C8 induction in vitro; assay type: in vitro ADME, human
P‐gp = P‐gp (Homo sapiens, UniProt P08183); assay: transporter substrate assessment; assay type: in vitro ADME
OAT1 = molecular target: T1, OAT1 (Homo sapiens, UniProt Q4U2R8); assay: transporter substrate/inhibitor assessment; assay type: in vitro ADME
T1 sequence (Q4U2R8 1-563): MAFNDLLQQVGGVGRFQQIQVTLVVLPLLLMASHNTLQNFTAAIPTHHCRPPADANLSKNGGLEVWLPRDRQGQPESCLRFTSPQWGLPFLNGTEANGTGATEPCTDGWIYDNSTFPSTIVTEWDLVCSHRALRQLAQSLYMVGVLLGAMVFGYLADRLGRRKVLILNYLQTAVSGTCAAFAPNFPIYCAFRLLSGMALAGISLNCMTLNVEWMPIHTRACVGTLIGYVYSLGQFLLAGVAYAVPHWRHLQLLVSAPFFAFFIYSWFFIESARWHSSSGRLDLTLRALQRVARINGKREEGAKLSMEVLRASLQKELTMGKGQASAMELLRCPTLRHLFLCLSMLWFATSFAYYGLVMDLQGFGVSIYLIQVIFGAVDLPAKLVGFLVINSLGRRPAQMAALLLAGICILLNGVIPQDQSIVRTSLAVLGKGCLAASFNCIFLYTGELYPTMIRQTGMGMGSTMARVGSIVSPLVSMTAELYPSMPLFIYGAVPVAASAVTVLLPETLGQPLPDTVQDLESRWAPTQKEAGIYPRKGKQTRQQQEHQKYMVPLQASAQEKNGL

OAT3 = molecular target: T2, OAT3 (Homo sapiens, UniProt Q8TCC7); assay: transporter substrate/inhibitor assessment; assay type: in vitro ADME
T2 sequence (Q8TCC7 1-542): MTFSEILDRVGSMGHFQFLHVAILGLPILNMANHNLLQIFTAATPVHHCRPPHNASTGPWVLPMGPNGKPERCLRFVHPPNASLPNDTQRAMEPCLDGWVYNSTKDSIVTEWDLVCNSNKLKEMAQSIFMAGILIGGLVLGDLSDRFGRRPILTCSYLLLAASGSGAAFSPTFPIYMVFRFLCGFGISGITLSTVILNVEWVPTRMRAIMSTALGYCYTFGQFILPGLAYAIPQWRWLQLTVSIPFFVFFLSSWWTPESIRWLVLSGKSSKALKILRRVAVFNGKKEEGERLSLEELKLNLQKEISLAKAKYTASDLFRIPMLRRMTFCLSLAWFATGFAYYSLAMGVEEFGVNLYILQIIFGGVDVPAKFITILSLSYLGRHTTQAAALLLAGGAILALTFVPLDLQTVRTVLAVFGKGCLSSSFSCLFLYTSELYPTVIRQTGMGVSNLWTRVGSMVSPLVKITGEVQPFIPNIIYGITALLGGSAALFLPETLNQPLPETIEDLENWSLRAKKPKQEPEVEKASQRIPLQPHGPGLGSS

[2] = measured solubility at different pH levels; assay type: physicochemical
CYP2C9 [3] = assay: CYP2C9 induction in vitro; assay type: in vitro ADME, human
OCT2 = molecular target: T3, OCT2 (Homo sapiens, UniProt O15244); assay: transporter substrate/inhibitor assessment; assay type: in vitro ADME
T3 sequence (O15244 1-555): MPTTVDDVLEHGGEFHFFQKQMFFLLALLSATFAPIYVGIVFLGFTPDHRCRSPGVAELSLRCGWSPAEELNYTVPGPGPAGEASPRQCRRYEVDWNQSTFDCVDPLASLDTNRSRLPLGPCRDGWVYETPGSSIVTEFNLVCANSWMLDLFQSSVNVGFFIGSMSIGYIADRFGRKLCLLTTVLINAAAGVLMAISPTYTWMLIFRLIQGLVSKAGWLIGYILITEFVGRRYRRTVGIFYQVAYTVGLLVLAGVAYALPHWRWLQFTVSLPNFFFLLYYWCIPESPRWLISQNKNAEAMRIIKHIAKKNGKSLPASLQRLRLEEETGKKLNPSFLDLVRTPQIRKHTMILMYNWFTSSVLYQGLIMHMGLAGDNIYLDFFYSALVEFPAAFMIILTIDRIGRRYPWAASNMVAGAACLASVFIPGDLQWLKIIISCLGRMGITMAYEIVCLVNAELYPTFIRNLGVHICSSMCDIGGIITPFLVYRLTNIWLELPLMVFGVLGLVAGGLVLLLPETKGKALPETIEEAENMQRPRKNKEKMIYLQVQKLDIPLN

[4] = oral, patients with B-cell malignancies; cited from earlier work

Sequence of P‐gp (P08183 whole entry): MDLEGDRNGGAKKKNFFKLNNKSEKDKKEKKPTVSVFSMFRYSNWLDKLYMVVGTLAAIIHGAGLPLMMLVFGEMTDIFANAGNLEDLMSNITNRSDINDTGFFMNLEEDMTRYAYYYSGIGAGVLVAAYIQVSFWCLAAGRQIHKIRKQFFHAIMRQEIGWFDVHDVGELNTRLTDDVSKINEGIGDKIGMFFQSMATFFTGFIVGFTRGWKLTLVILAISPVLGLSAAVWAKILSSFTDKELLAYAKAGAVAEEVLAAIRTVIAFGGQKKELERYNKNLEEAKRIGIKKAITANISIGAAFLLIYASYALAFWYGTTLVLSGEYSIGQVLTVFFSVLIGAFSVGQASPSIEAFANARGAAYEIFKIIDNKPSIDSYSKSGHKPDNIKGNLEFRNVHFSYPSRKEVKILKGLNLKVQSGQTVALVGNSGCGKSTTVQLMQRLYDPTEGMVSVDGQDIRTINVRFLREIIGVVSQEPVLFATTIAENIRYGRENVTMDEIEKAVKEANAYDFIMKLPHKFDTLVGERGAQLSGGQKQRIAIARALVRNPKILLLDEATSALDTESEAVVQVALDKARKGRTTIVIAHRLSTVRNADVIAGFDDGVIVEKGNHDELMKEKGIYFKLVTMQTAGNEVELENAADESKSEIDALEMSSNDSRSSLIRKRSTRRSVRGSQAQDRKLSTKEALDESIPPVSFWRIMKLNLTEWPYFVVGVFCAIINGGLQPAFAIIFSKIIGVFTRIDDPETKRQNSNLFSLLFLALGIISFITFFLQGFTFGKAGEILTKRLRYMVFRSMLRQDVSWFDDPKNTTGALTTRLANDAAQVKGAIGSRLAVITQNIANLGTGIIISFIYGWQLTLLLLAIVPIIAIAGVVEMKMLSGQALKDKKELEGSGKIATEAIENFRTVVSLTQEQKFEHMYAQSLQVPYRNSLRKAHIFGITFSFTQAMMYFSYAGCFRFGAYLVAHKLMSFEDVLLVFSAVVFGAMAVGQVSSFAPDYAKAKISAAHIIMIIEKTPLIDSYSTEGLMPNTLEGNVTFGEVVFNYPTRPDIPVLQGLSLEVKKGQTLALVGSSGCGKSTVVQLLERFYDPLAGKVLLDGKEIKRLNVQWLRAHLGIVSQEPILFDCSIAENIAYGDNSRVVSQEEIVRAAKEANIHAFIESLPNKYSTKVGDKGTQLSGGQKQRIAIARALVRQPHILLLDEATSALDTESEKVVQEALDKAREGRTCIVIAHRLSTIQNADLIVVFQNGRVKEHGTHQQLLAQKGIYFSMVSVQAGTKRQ

In the case of `C=CC(=O)N1CCC([C@@H]2CCNc3c(C(N)=O)c(-c4ccc(Oc5ccccc5)cc4)nn32)CC1` [zanubrutinib, Zanubrutinib], the “CYP3A induction in vivo” value (CYP3A; clinical study BGB-3111-108 with midazolam) is listed as “weak CYP3A inducer”, the “mean reduction of systemic exposure of CYP3A and CYP2C19 substrates” value (CYP3A; zanubrutinib 320 mg total daily dose) is listed as less than 50% and the pKa (pKa) is listed as 3.3. For the same compound, the “effect on the activity of CYP2C9, BCRP and P-gp” value (CYP2C9 [1]) was “minimal or no effect”, the “increase of CYP2C8 activity” value (CYP2C8; 0.3 μM) was […] and the “increase of CYP2C8 activity” value (CYP2C8; 3 μM) was […]. For the same compound, the “increase of CYP2C8 activity” value (CYP2C8; 30 μM) was […], the “Indmax CYP2C8” value (CYP2C8; Emax model on activity data) was […] and the EC50 (CYP2C8; human, hepatocytes) was […]. The P-gp substrate (P‐gp) was “likely to be a substrate”, the “substrate or inhibitor of OAT1” value (OAT1) was “not a substrate or inhibitor” and the “substrate or inhibitor of OAT3” value (OAT3) was “not a substrate or inhibitor”. The solubility ([2]; pH 1.2) was 247 µg/mL (≈ 524 µM), the solubility ([2]; pH 4.5) was 73 µg/mL (≈ 155 µM) and the solubility ([2]; pH 6.8) was 54 µg/mL (≈ 115 µM). The solubility ([2]; pH 7.4) was 52 µg/mL (≈ 110 µM), the “increase of CYP2C9 activity” value (CYP2C9 [3]; 0.3 μM) was […] and the “increase of CYP2C9 activity” value (CYP2C9 [3]; 3 μM) was […]. For the same compound, the “increase of CYP2C9 activity” value (CYP2C9 [3]; 30 μM) was […], the “Indmax CYP2C9” value (CYP2C9 [3]; Emax model on activity data) was […] and the EC50 (CYP2C9 [3]; human, hepatocytes) was […]. For the same compound, the “substrate or inhibitor of OCT2” value (OCT2) was “not a substrate or inhibitor” and the “mean apparent terminal elimination half-life” value [4] was 2 to 4 h.
